The values that follow come from patent US20110021618A1, “METHODS OF TREATING FIBROTIC DISORDERS” (PALOMA PHARMACEUTICALS, INC., priority 2008, published 2011).

Data set [1] relates to SM-α-actin. As to the kind of experiment: TGF-β1 stimulated SM-α-actin in human lung fibroblasts, Western Blot. The conditions noted are these: 30 μM; 30 minutes pre-treatment before TGF-β1. It is filed as cell-based. The source says:
(§1) Transforming growth factor-beta one (TGF-β1) and alpha-Thrombin (α-Thrombin) are known to be involved in the pathogenesis of fibrotic disease. In an in vitro model of pulmonary fibrosis, TGF-β1 stimulates myofibroblast differentiation of human lung fibroblasts characterized by expression of contractile smooth muscle (SM)-specific proteins such as SM-alpha-actin (SM-α-actin). TGF-β1 also stimulates SM-α-actin expression in human lung fibroblasts which parallels a profound induction of serum response factor (SRF) expression and activity. Increased contractile gene expression with SM-α-actin as marker, increased SRF, increased connective tissue growth factor (CTGF) and increased matrix genes (e.g. fibronectin) are examples of effects observed during myofibroblast differentiation. Myofibroblast differentiation is induced by stimulation with TGF-β1 thereby increasing markers of differentiation.
(§2) Human lung fibroblasts were pre-treated with Palomid 529 for 30 minutes prior to TGF-β1 stimulation. Western Blot with antibodies against CTGF, SRG, SM-α-actin and β-actin is shown.
In general terms: In western blotting, separated proteins are transferred to a membrane and probed.

Data set [2] in a line: Half-life in the vitreous. It is filed as in vivo.
Data set [3] deals with detached retina (Müller cells, microglia and macrophages, photoreceptors). Put plainly: Experimental retinal detachment, single intravitreal injection (Example 1). In kind it is in vivo, rabbit.
Data set [4] has as its system p-AKT(S473). Put plainly: AKT phosphorylation in human lung fibroblasts, Western Blot. It is filed as cell-based. The note with it: 30 μM. The protocol: Human lung fibroblasts are stimulated for one hour with either TGF-β1 or α-Thrombin in presence of 30 μM Palomid 529 to effect activation of signal transduction proteins. p-AKT(S473) and AKT levels are measured by Western Blot. Scanning software, Scion Image (Scion Corporation, Frederick, Md.), was used to digitize bands on Western Blot for numeric calculation of percent inhibition described in text.

In data set [5] the test system is CTGF. Put plainly: TGF-β1 stimulated CTGF in human lung fibroblasts, Western Blot. It is filed as cell-based. The note with it: 30 μM; 30 minutes pre-treatment before TGF-β1.
Text: as §1, §2

Data set [6] concerns detached retina (Müller cells). Put plainly: Experimental retinal detachment, Müller cell proliferation and glial scar formation (Example 2). In kind it is in vivo, rabbit. The note with it: 600 micrograms intravitreally in PBS, versus PBS. The protocol: Methods: Experimental retinal detachments were made in the right eyes of pigmented rabbits. Six hundred micrograms of Palomid 529 in 50 microliters of PBS, or PBS alone was injected intravitreally on day 0, immediately after retinal detachment. Each rabbit received 10 micrograms of BrdU intravitreally on day 3. Animals were sacrificed on day 3 or 7, at which time the tissue was fixed in paraformaldahyde, embedded in agarose and sectioned at 100 microns. The sections were labeled with anti-BrdU, to detect dividing cells, and anti-vimentin, to identify Müller cells. Labeling was imaged on an Olympus Fluoview confocal microscope, and the resultant digital images were analyzed to determine the number of proliferating cells as well as the number and length of subretinal glial scars.

The test system of data set [7] is SRF. Put plainly: TGF-β1 stimulated SRF in human lung fibroblasts, Western Blot. It is filed as cell-based. The note with it: 30 μM; 30 minutes pre-treatment before TGF-β1.
Text: as §1, §2

Data set [8] concerns epiretinal membrane formation. The conditions noted are these: human patients; cited from earlier work.
Setting [9] is: 7-day detachment, versus control.

Regarding `COc1ccc(COc2cc3oc(=O)c4cc(C(C)O)ccc4c3cc2OC)cc1` (stereo not shown) [Palomid 529], in data set [1], the “inhibition of TGF-β1 stimulated increase of SM-α-actin” value is 65%. The “expected half-life in the vitreous” value in data set [2] was “at least 3 months”. Moreover, in data set [3] (3-day detachment, 600 μg intravitreally, vehicle control 10.79), the “average number of anti-BrdU labeled Müller cell nuclei” value is given as 1.19 /mm of retina. Also, in data set [3] (setting [9]), the “reduction of average number of subretinal scars” value is listed as “approximately 4 fold” and the “reduction of length of subretinal scars” value is on record as “more than 20 fold”. Also, the “average number of subretinal scars” value in data set [3] (7-day detachment, 600 μg intravitreally, control 2.03) is reported as 0.39 /mm of retina. In addition, in data set [3] (7-day detachment, 600 μg intravitreally, control 43.9), the “total number of isolectin B4 labeled cells (microglia and macrophages)” value was 24.5 /mm retina. The “average number of anti-BrdU labeled Müller cell nuclei” value in data set [3] (7-day detachment, 600 μg intravitreally, vehicle control 9.83) is recorded as 1.49 /mm of retina. For the same molecule, the “average thickness of the ONL” value in data set [3] (7 days of detachment, 600 μg intravitreally, normal retina 34.45 μm, vehicle 19.40 μm) is 27.21 μm. The “average length of subretinal scars” value in data set [3] (day 7, 600 μg intravitreally, control 131.28 μm) stood at 11.01 μm. Moreover, the “inhibition of basal level of AKT phosphorylation” value in data set [4] (basal, stated with the TGF-β1 result) was 13%. In addition, in data set [4] (basal, stated with the α-Thrombin result), the “decrease of AKT phosphorylation in the absence of α-Thrombin (basal level)” value is 15%. The “inhibition of phosphorylation of AKT stimulated by TGF-β1” value in data set [4] (one hour TGF-β1) is recorded as 27%. In addition, in data set [4] (one hour α-Thrombin), the “decrease of AKT phosphorylation in the presence of α-Thrombin” value worked out at 15%. Moreover, the “inhibition of TGF-β1 stimulated increase of CTGF” value in data set [5] came out at 18%. Also, the “number of BrdU labeled Müller cells per millimeter” value in data set [6] (3 and 7 day time points) is on record as “statistically significant decrease”. Further, in data set [6] (day 7), the “number and size of sub-retinal scars” value is “significant decrease”. Moreover, in data set [7], the “inhibition of TGF-β1 stimulated increase of SRF” value amounted to 29%.
`O=c1[nH]cc(F)c(=O)[nH]1` [5-fluorouracil]: in data set [8], the “reducing epiretinal membrane formation” value is given as “not effective”.
